No end group written: not given here.
Legend:
Assay type in all cases: in vivo, Sprague-Dawley rats
[1] = test system: rats with mild-moderate TBI; assay: Modified foot-fault test after controlled cortical impact TBI; conditions: 3 mg/kg i.v. at 24 h and 48 h post injury; up to 25 days after TBI; vs control group
Protocol: (§1) A controlled cortical impact (CCI) device was used to induce mild-moderate TBI. Adult male (280-300 g) Sprague-Dawley rats (Harlan: Indianapolis, Ind.) were anesthetized intraperitoneally with xylazine (10 mg/kg body weight) and ketamine (40 mg/kg body weight). Rectal temperature was maintained at 37° C. using a feedback-regulated water-heating pad. The surgical area of the skull was prepared using germicidal povidone-iodine scrub followed by a 70% isopropyl alcohol rinse combinations, being careful to scrub from the center of the surgical site toward the periphery. Rats were placed in a stereotactic frame. […] Velocity was measured with a linear velocity displacement transducer. […] Neurological functional outcome was measured by the modified neurological severity score (mNSS), Morris Water Maze (MWM) and foot-fault test. mNSS is a composite of the motor (muscle status, abnormal movement), sensory (visual, tactile and proprioceptive) and reflex tests. […] If the animal reached the platform within 90 sec, the percentage of time traveled within the NE (correct) quadrant was calculated relative to the total amount of time spent swimming before reaching the platform and employed for statistical analysis. […] Rats were monitored continuously while in the tank. […] When animals inaccurately place a limb, the limb falls through one of the openings in the grid, which is counted as a foot fault. […]

[2] = test system: rats with mild-moderate TBI; assay: BrdU/MAP-2 double fluorescence staining, neurogenesis after controlled cortical impact TBI; conditions: 3 mg/kg i.v. at 24 h and 48 h post injury; 25 days post injury; vs saline controls, p<0.05, n=7
Excerpt: (§2) A large part of the functional recovery that occurs after brain injury is due to neurogenesis, and brain plasticity caused by anatomical and functional reorganization of the CNS. To determine the effect of SEQ ID NO. 5 on neurogenesis, the brain blocks containing the hippocampus were processed for vibratome sections (100 μm) followed by double fluorescence staining for endogenous cellular proliferation {BrdU positive cells (red) and MAP 2 (green) to identify newborn neurons in the ipsilateral dentate gyrus (DG) of the hippocampus. Five sections with 100-μm intervals from the dorsal dentate gyms were used for immunohistochemical staining with the same antibody. Sections were blocked in a Tris-buffered saline solution containing 5% normal goat serum, 1% BSA and 0.05% Tween-20. […] Quantitative measurements of immunostaining were performed by an observer blinded to the individual treatment status of the animals. […] The cells with BrdU that clearly localized to the nucleus were counted as BrdU-positive cells. […] The fluorescent images were analyzed with a Bio-Rad MRC 1024 (argon and krypton) laser-scanning confocal imaging system mounted onto a Zeiss microscope (Bio-Rad, Cambridge, Mass.). […]
A controlled cortical impact (CCI) device was used to induce mild-moderate TBI. […] Velocity was measured with a linear velocity displacement transducer. […]

[3] = test system: rats with mild-moderate TBI; assay: Morris Water Maze (MWM) after controlled cortical impact TBI; conditions: 3 mg/kg i.v. at 24 h and 48 h post injury; Days 23 to 25 post-injury; vs saline-treated group, P<0.05
Protocol: as §1

[4] = test system: rats with mild-moderate TBI; assay: Modified neurological severity score (mNSS) after controlled cortical impact TBI; conditions: 3 mg/kg i.v. at 24 h and 48 h post injury; Days 14-25 after TBI; vs saline-treated group, P<0.05
Protocol: as §1

[5] = test system: rats with mild-moderate TBI; assay: BrdU immunostaining, cell proliferation after controlled cortical impact TBI; conditions: 3 mg/kg i.v. at 24 h and 48 h post injury; examined 25 days after TBI; vs saline controls, p<0.05, n=7
Protocol: BrdU, an analog of thymidine, can be incorporated into the newly synthesized DNA of replicating cells during the S phase of the cell cycle, substituting for thymidine during DNA replication. BrdU immunostaining is commonly used to detect cell proliferation. To determine the effect of SEQ ID NO. 5 (3 mg/kg, i.v.) or saline on cell proliferation, BrdU (100mg/kg) was injected i.p. daily starting at day 1 after mild-moderate TBI and continued for 10 days after TBI to label newly generated cells. Twenty-five days after TBI, the animals were anesthetized and sacrificed. The brains were fixed in 4% paraformaldehyde and cut into seven equally spaced 2-mm coronal blocks using a rat brain matrix. […] 5-treated rats examined at 25 days after TBI, compared to the saline controls. […]
A large part of the functional recovery that occurs after brain injury is due to neurogenesis, and brain plasticity caused by anatomical and functional reorganization of the CNS. […] 5 on neurogenesis, the brain blocks containing the hippocampus were processed for vibratome sections (100 μm) followed by double fluorescence staining for endogenous cellular proliferation {BrdU positive cells (red) and MAP 2 (green) to identify newborn neurons in the ipsilateral dentate gyrus (DG) of the hippocampus. […] Quantitative measurements of immunostaining were performed by an observer blinded to the individual treatment status of the animals. […]

[6] = test system: rats with mild-moderate TBI; assay: Endothelial barrier antigen (EBA) staining, vascular density after controlled cortical impact TBI; conditions: 3 mg/kg i.v. at 24 h and 48 h post injury; 25 days after TBI; vs saline-treated rats, p<0.05, n=7
Excerpt: as §2, with “antibody.” for “antibody. Sections were blocked in a Tris-buffered saline solution containing 5% normal goat serum, 1% BSA and 0.05% Tween-20.”
Endothelial barrier antigen (EBA)-staining has been used to identify vascular structure in the brain after ischemic brain injury. […] 5-therapy on vessel proliferation and vascular density, quantitative measurement of Endothelial Barrier Antigen (EBA) staining was performed. […]

## DPMSSTYIEELGKREVTIPPKYVALLPAVLLALLAP [SEQ ID NO. 5]
[1]
  neurological function assessed by the footfault test: no significant improvement
[2]
  number of newborn neurons (BrdU/MAP-2 positive) in the ipsilateral DG, per mm^2: significantly increased
[3]
  spatial learning and memory retention (percentage of time spent in the correct quadrant, MWM): significant improvement
[4]
  sensorimotor scores (mNSS): significantly improved
[5]
  number of BrdU-positive cells in the ipsilateral cortex and hippocampus: significantly increased
[6]
  density (vessels/mm2) of EBA positive vessels in the injured cortex area: significantly increased

From patent publication US20210145930A1, “MULTIPLE LAYER ARTICLE WITH INTERACTIVE REINFORCEMENTS LINEAR RIBBON FIBER REINFORCEMENT FOR COMPOSITE FORMS” (NeuroTheranostics, Inc., priority 2018, published 2021)
